{"source": "patent US11503827B2", "about": "“Stabilized chemical composition” (priority 2010, dated 2022)", "data": [{"assay": "Dissolution of active ingredient in liquid epoxy resin mixture, by inspection", "assay_type": "physicochemical", "conditions": "1.0-1.5 g AI in 8 g 635 Thin Epoxy Resin and 4 g 556 2:1 Epoxy Hardener", "protocol": "Nine different individual resin mixtures were prepared by mixing together 8 g 635 Thin Epoxy Resin, 4 g 556 2:1 Epoxy Hardener and between 1.0 and 1.5 g of the following finely milled active ingredients: atrazine, azoxystrobin, bicylopyrone, cyproconazole, difenoconazole, mesotrione, prodiamine, thiabendazole, thiamethoxam. […] The samples were placed on a platform shaker overnight at room temperature and then examined by light microscopy. In every case the presence of a dispersion of epoxy resin particles of diameter approximately 100 microns was confirmed. Crystals of the active ingredient were visible inside the epoxy particles under polarized light, except that in the cases of bicyclopyrone and mesotrione individual crystals were not visible as these active ingredients had dissolved in the epoxy resin—in these cases the entire epoxy resin particle was slightly birefringent indicating the presence of crystal domains within the matrix.", "values": [{"smiles": "COCCOCc1nc(C(F)(F)F)ccc1C(=O)C1=C(O)C2CCC(C2)C1=O", "note": "(stereo not drawn) [bicylopyrone]", "dissolution of active ingredient in the liquid resin": "fully dissolved"}, {"smiles": "CC(C1CC1)C(O)(Cn1cncn1)c1ccc(Cl)cc1", "note": "(stereo not drawn) [cyproconazole]", "dissolution of active ingredient in the liquid resin": "most of the cyproconazole was dissolved"}, {"smiles": "CS(=O)(=O)c1ccc(C(=O)C2C(=O)CCCC2=O)c([N+](=O)[O-])c1", "note": "[mesotrione]", "dissolution of active ingredient in the liquid resin": "fully dissolved"}]}]}
